How the values were obtained:
[1] = Acute effect on tear fluid secretion (tearing rate, phenol red thread) in naive rats; type: in vivo, Sprague-Dawley rats
Procedure: Sprague-Dawley rats (males, around 200 g) were purchased from Charles River and adapted one week before processing the experiment. Two-three rats per cage were housed in a controlled environment of 12 hours intervals of light/dark cycles and free access to food and water. Animal experiments were approved by the Animal Care and Use Committee of the University of Barcelona (CEEA) and the […] de Territori i Sostenibilitat of Generalitat de Catalunya, Catalonia, Spain (319/19; 10935) and followed the ethical guidelines of the International Association for the Study of Pain. […] (also named Nter 13 peptide or […] NO: 2)) and scramble ([…] NO: 7)) peptides were purchased from GenScript Biotech (Leiden, Netherlands) and provided by CNRS. Both peptides were dissolved in Phosphate Buffered Saline (PBS) at 10 mM and used for topical ocular application (5 ul per eye). Tear fluid secretion (tearing rate) was measured using phenol red threads (Zone-Quick, Menicon, Nagoya, Japan) placed on the lower eyelid for 30 s without topical anesthesia (Trost, 2007; Acosta 2013). Tearing rate was determined with an accuracy of ±0.5 mm by measurement of the length of the red portion of the thread. After habituation of the animals, basal tearing rate was measured in both eyes before any topical application of peptides. Then, animals were divided in different groups and a solution containing vehicle (PBS), amiloride (1 mM), peptide N13 or peptide scramble was topically applied to the ocular surface (5 μl) and tearing rate was measured at 1, 3, 6, 12 and 24 h. Tearing rate measurements were done blind to the treatment received by the animals. Data are presented as mean±standard error of the mean (SEM). Statistical differences between different sets of data were assessed by performing repeated measured One-way ANOVA plus Bonferroni's post-tests (each data point in an experimental group vs. basal values) or repeated measured Two-way ANOVA plus Bonferroni's post-tests (each data point in […] group vs. Scramble or Vehicle group; or point in […] or amiloride groups vs. Vehicle group) using Prism 9 (GraphPad Software, San Diego, CA). The significance level was set at p<0.05 in all statistical analyses.

TMEM16A [2] = target: T1, TMEM16A (Mus musculus, UniProt Q8BHY3); assay: Whole-cell patch-clamp of HEK293T cells expressing TMEM16A; type: cell-based; conditions: for inhibition of KCNE1-TMEM16A chloride current: HEK293T co-expressing TMEM16A and KCNE1; for effect of peptide application on TMEM16A current: HEK293T cells expressing TMEM16A alone, 100 μM for Nter13, S38G and rat peptides
T1 construct: expressed in transfected cells; host or cells: HEK293T
T1 sequence (Q8BHY3 1-960): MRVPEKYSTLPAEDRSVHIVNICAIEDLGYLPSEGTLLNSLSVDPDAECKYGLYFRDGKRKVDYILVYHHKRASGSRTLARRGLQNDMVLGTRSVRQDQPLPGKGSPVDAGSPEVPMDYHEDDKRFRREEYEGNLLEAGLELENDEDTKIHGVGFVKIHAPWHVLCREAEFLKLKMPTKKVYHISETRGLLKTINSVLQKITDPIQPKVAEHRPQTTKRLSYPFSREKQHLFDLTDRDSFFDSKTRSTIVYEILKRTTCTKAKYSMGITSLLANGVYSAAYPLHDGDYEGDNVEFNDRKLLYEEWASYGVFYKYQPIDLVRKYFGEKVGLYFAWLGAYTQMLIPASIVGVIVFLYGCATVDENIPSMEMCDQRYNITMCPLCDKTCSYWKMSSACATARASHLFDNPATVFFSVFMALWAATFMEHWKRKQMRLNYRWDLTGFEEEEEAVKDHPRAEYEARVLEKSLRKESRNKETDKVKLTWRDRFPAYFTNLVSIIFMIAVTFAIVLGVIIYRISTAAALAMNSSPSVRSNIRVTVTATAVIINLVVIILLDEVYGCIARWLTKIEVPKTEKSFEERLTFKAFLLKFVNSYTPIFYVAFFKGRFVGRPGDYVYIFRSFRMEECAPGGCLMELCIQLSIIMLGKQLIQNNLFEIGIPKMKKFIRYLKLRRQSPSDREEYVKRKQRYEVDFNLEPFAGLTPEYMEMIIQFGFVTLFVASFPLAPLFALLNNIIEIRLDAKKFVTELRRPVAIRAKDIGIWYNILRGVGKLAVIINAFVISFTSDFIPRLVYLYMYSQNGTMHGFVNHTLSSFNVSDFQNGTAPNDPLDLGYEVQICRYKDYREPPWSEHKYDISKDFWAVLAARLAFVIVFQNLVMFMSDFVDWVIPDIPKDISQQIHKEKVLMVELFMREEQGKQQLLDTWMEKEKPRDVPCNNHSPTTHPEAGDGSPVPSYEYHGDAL
Procedure: (§1) mTMEM16A (kindly provided by Dr Lily Yeh Jan) and hKCNE1 cDNA were subcloned in pIRES2eGFP, pXOOM, pcDNA3.1, pCDNA3.1-GFP and pCMV-HA vectors. Truncations and mutations on KCNE1 were generated by PCR. For SiMPull experiments, HA-tags were fused to the N-terminus of sequences, whereas GFP-tags were fused to C-terminal part. HEK293T and PCT cells were transiently co-transfected using Lipofectamine 2000 or the calcium phosphate method with a total amount of 1 and 3.5 μg of DNA, respectively, and seeded on 18 mm diameter coverslips. HEK cells were maintained in DMEM with 5% FBS on poly-L-lysine-coated glass coverslips in 12 well plates. PCT cells from wild type and knock-out mice were microdissected as described previously and maintained in F12 (Gibco) on collagen-coated glass coverslips.
(§2) HEK293T and PCT cell electrophysiology was performed 24-48 h after transfection. For whole-cell patch-clamp experiments cells were recorded in a bath solution containing (in mM) 150 NaCl, 5 KCl, 2 CaCl2 and 10 HEPES, pH 7.4 and 0.05% BSA. The glass pipettes (2-5 MΩ of resistance) were filled with (in mM) 5 NaCl, 135 CsCl, 2 MgCl2, 5 EGTA, 10 HEPES, pH 7.3. Cells were recorded either after incubation of 30 min with the peptide or during perfusion with the peptide. Total calcium concentration was calculated with Maxchelator (maxchelator.standford.edu) for a temperature of 20° C. HEK293T and PCT cells were recorded at room temperature in voltage-clamp mode using an Axopatch 200A (Molecular Devices) amplifier. Signals were filtered at 10 kHz and digitalized at 20 kHz. Whole-cell currents were elicited by voltage-ramps (from −100 to +100 mV, 1 s) and I-V stimulation pulses (from −100 to +100 mV in 20 mV increments, 1 s each pulse), holding the cells at −80 mV. Current densities were measured at +100 mV. Cell recordings, data acquisition and analysis of electrophysiology experiments were performed using pClamp software (Molecular Devices).

TMEM16A [3] = target: T2, TMEM16A (Mus musculus, UniProt Q8BHY3); assay: Whole-cell patch-clamp of voltage-dependent Cl- current in proximal convoluted tubule (PCT) cells; type: cell-based; conditions: for Cl- current density after inhibitor: wild type PCT cells, untreated wild type 18.07±1.21
T2 construct: endogenous in cells; host or cells: primary mouse kidney proximal convoluted tubule (PCT) cells
Procedure: as §1, §2
T2 sequence (P23299 whole entry partner, one chain of several): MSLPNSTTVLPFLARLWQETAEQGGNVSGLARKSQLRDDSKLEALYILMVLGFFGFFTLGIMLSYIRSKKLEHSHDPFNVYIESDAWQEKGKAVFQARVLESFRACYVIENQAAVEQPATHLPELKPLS

SK4 channel = target: T3, SK4 channel (Homo sapiens, UniProt O15554); assay: Patch-clamp of HEK293T cells transfected with SK4 and KCNE1; type: cell-based; conditions: absence of calcium
T3 construct: expressed in transfected cells
Procedure: as §2

KCNQ1 = target: T4, KCNQ1 (Homo sapiens, UniProt P51787); assay: Whole-cell patch-clamp of cells transfected with KCNQ1 and KCNE1 variants; type: cell-based; conditions: co-transfected with wild type KCNQ1, current densities at +40 mV
T4 construct: expressed in transfected cells

[4] = KCNE1 form co-expressed with TMEM16A in HEK293T cells

Molecule: N=C(N)NC(=O)c1nc(Cl)c(N)nc1N [Amiloride, amiloride, reference compound]
- effect on tearing rate compared with Vehicle ([1]; N13ter 10 mM, amiloride 1 mM, vehicle PBS): did not show a statistically significant effect
- eyes with increased tearing rate between 1 h to 3 h ([1]; amiloride 1 mM topical): 7 out of 14

Molecule: COc1ccccc1/C=N/NC(=O)COc1ccc(Cl)cc1C [Ani9, reference compound]
- inhibition of KCNE1-TMEM16A chloride current (TMEM16A [2]; Ani9 300 nM): inhibited
- effect of Ani9 on Nter13-induced TMEM16A current (TMEM16A [2]; Ani9 5 μM after Nter13 100 μM, HEK293T expressing TMEM16A alone): reversion
- Cl- current density after inhibitor (TMEM16A [3]; Ani9 5 μM): 2.88±0.38 pA/pF

Molecule: O=C(O)c1cccnc1Nc1cccc(C(F)(F)F)c1 [NFA, niflumic acid, reference compound]
- inhibition of KCNE1-TMEM16A chloride current (TMEM16A [2]; NFA 100 μM): inhibited
- Cl- current density after inhibitor (TMEM16A [3]; NFA 100 μM): 4.51±0.28 pA/pF

Molecule: CCc1c(C)nc(SCC(=O)Nc2nc(-c3ccc(OC)cc3)cs2)[nH]c1=O [T16Ainh-A01, reference compound]
- inhibition of KCNE1-TMEM16A chloride current (TMEM16A [2]; T16A(inh)A01 10 μM): inhibited
- Cl- current density after inhibitor (TMEM16A [3]; A01 10 μM): 5.52±0.72 pA/pF

Molecule: KCNE1: human KCNE1 protein of 129 amino acids (NP_000210.2), expressed from cDNA
- reversal potential (TMEM16A [2]; KCNE1 co-expressed with TMEM16A in HEK293T cells): −4.8±1.3 mV
- current density at +100 mV (TMEM16A [2]; [4]): 18.1±2.8 pA/pF
- current density at +100 mV (TMEM16A [2]; TMEM16A co-expressed with KCNE1, 1 mM BAPTA): 21.98±5.32 pA/pF
- voltage-dependent Cl- current density after rescue (TMEM16A [3]; kcne1−/− PCT cells transfected with KCNE1 cDNA, KO 5.37±0.56): 21.59±1.38 pA/pF
- effect of KCNE1 overexpression on SK4 current (SK4 channel): did not induce any increase

Molecule: LLAKRGRDSGPSR (SEQ ID NO: 7) (Synthetic scramble peptide) [scrambled control peptide, reference compound]
- effect of peptide application on TMEM16A current (TMEM16A [2]): no effect
- tearing rate at 12 h ([1]; 10 mM topical, 5 μl per eye, n=20 eyes, basal 7.65±0.49 mm (N13ter), 8.10±0.54 mm (Scramble)): 6.45±0.34 mm
- effect on tearing rate ([1]; N13ter vs Scramble study, both 10 mM topical): sustained small decrease

Molecule: S38G: KCNE1 S38G polymorphism variant (full protein, not the hS38G peptide)
- current density at +100 mV (TMEM16A [2]; [4]): 6.96±0.78 pA/pF
- effect of KCNE1 polymorphism on KCNQ1 regulation (KCNQ1): do not impair the KCNQ1 regulation

Molecule: T7I: KCNE1 disease mutation T7I, not in the regulating domain, control
- current density at +100 mV (TMEM16A [2]; [4]): 24.69±1.57 pA/pF

Molecule: hS38G: hS38G peptide (SEQ ID NO: 5), N13 presenting S38G polymorphism (LARRSPRGGDGKL; hN13 S38G) [reference compound]
- effect of peptide application on TMEM16A current (TMEM16A [2]): no effect

Molecule: rN13: rat N13 peptide (SEQ ID NO: 6) (LARRSQLRDDSKL; amino acid residues between positions 30 to 42 of the rat KCNE1 protein sequence)
- effect of peptide application on TMEM16A current (TMEM16A [2]): only a small effect
